Results published in ChEMBL document CHEMBL6178002, “Identification of a RANKL/TNF-α Dual-Inhibitor as a Potential Disease-Modifying Agent for the Treatment of Knee Osteoarthritis” (J Med Chem, 2025).
Activity calls are given as the source filed them. The calls are words filed in the database; no cut-off is given here.

What was measured:
Rattus norvegicus [1] = species on record: Rattus norvegicus; experiment: Anti-inflammatory activity in male Sprague-Dawley rat model of ACLT-induced osteoarthritis assessed as increase in BMD level at 50 to 100 ug, IART treated weekly once for 8 weeks by micro-CT analysis; assay type: functional, organism-based; details: dose 50-100 µg
Bone marrow macrophage [2] = experiment: Inhibition of RANKL/M-CSF-induced osteoclastogenesis in bone marrow macrophage cells (unknown origin) assessed as decrease in TRAP level at 1 uM by Western blot analysis; assay type: functional, cell-based; details: time <= 5.0 day
[3] = Clearance in male Sprague-Dawley rat at 1 mg/kg, iv measured for 0.25 to 24 hrs; assay type: ADME, organism-based; details: in vivo, time 0.25-24 hrs
Bone marrow cell [4] = experiment: Inhibition of RANKL/M-CSF-induced osteoclastogenesis in male C57/BL6 mouse bone marrow cells assessed as decrease in F-actin loop formation incubated for 5 to 7 days by rhodamine phalloidin/DAPI staining based analysis; assay type: functional; details: dose <= 1.0 µM, time 5-7 day
Bone marrow macrophage [5] = experiment: Inhibition of RANKL/M-CSF-induced osteoclastogenesis in bone marrow macrophage cells (unknown origin) assessed as decrease in TRAP level incubated for 48 hrs by Western blot analysis; assay type: functional, cell-based; details: dose <= 2.5 µM
[6] = AUC (0 to t) in male Sprague-Dawley rat at 1 mg/kg, iv measured for 0.25 to 24 hrs; assay type: ADME, organism-based; details: in vivo, time 0.25-24 hrs
Bone marrow macrophage [7] = experiment: Inhibition of RANKL/M-CSF-induced osteoclastogenesis in bone marrow macrophage cells (unknown origin) assessed as decrease in NFATC1 mRNA level incubated for 48 hrs by RT-qPCR analysis; assay type: functional, cell-based; details: dose <= 5.0 µM
RAW264.7 [8] = experiment: Inhibition of NFkappaB activation in mouse RAW264.7 cells assessed as reduction in TNF-alpha-induced NF-kappaB p65 phosphorylation at 10 uM preincubated for 12 hrs followed by TNF-alpha addition measured after 2 hrs by immunofluorescence based analysis; assay type: cell-based; details: time 14.0 hrs
[9] = Volume of distribution at steady state in male Sprague-Dawley rat at 1 mg/kg, iv measured for 0.25 to 24 hrs; assay type: ADME, organism-based; details: in vivo, time 0.25-24 hrs, read-out: Vdss
Bone marrow macrophage [10] = experiment: Inhibition of RANKL/M-CSF-induced osteoclastogenesis in bone marrow macrophage cells (unknown origin) assessed as decrease in c-Fos level at 1 uM by Western blot analysis; assay type: functional, cell-based; details: time <= 5.0 day
Primary chondrocyte [11] = experiment: Anti-inflammatory activity in IL-1beta-treated C57/BL6 mouse primary chondrocytes assessed as decrease in MMP-3 mRNA level at 10 uM incubated for 24 hrs by RT-qPCR analysis; assay type: functional, cell-based
Bone marrow cell [12] = experiment: Inhibition of RANKL/M-CSF-induced osteoclastogenesis in male C57/BL6 mouse bone marrow cells at 1 uM by TRAP staining based analysis; assay type: functional; details: time 1-7 day
Primary chondrocyte [13] = experiment: Anti-inflammatory activity in IL-1beta-treated C57/BL6 mouse primary chondrocytes assessed as decrease in MMP-9 mRNA level at 10 uM incubated for 24 hrs by RT-qPCR analysis; assay type: functional, cell-based
[14] = (§1) Inhibition of RANKL/M-CSF-induced osteoclastogenesis in male C57/BL6 mouse bone marrow cells incubated for 5 to 7 days by TRAP staining based analysis; assay type: functional; details: bone marrow cell
Bone marrow cell [15] = experiment: as §1; assay type: functional; details: dose <= 5.0 µM, time 5-7 day
Bone marrow macrophage [16] = experiment: Inhibition of RANKL/M-CSF-induced osteoclastogenesis in bone marrow macrophage cells (unknown origin) assessed as decrease in cathepsin K level incubated for 48 hrs by Western blot analysis; assay type: functional, cell-based; details: dose <= 2.5 µM
Bone marrow macrophage [17] = experiment: Inhibition of RANKL/M-CSF-induced osteoclastogenesis in bone marrow macrophage cells (unknown origin) assessed as decrease in MMP-9 level at 1 uM by Western blot analysis; assay type: functional, cell-based; details: time <= 5.0 day
[18] = Inhibition of RANKL/M-CSF-induced osteoclastogenesis in male C57/BL6 mouse bone marrow cells at 0.1 uM incubated for 5 to 7 days by TRAP staining based analysis relative to control; assay type: functional; details: C57/BL6, Bone marrow cell, time 5-7 day
Tumor necrosis factor = Tumor necrosis factor (Homo sapiens, UniProt P01375); experiment: Binding affinity to CM5 chip-immobilized human TNF-alpha assessed as dissociation constant by SPR analysis
[19] = Half life in male Sprague-Dawley rat at 1 mg/kg, iv measured for 0.25 to 24 hrs; assay type: ADME, organism-based; details: in vivo, time 0.25-24 hrs
Rattus norvegicus [20] = species on record: Rattus norvegicus; experiment: Anti-inflammatory activity in male Sprague-Dawley rat model of ACLT-induced osteoarthritis assessed as increase in Tb.N level at 50 to 100 ug, IART treated weekly once for 8 weeks by micro-CT analysis; assay type: functional, organism-based; details: dose 50-100 µg
Primary chondrocyte [21] = experiment: Anti-inflammatory activity in IL-1beta-treated C57/BL6 mouse primary chondrocytes assessed as increase in collagen II mRNA level at 10 uM incubated for 24 hrs by RT-qPCR analysis; assay type: functional, cell-based
[22] = Cmax in male Sprague-Dawley rat at 10 mg/kg, po measured for 0.25 to 24 hrs; assay type: ADME, organism-based; details: in vivo, time 0.25-24 hrs
[23] = Tmax in male Sprague-Dawley rat at 10 mg/kg, po measured for 0.25 to 24 hrs; assay type: ADME, organism-based; details: in vivo, time 0.25-24 hrs
Bone marrow macrophage [24] = experiment: Inhibition of RANKL/M-CSF-induced osteoclastogenesis in bone marrow macrophage cells (unknown origin) assessed as decrease in c-Fos mRNA level incubated for 48 hrs by RT-qPCR analysis; assay type: functional, cell-based; details: dose <= 5.0 µM
RAW264.7 [25] = experiment: Anti-inflammatory activity in LPS-stimulated mouse RAW264.7 cells assessed as decrease in IL-18 level at 10 uM preincubated for 24 hrs followed by LPS addition measured after 2 hrs by RT-qPCR analysis; assay type: functional, cell-based; details: time 26.0 hrs
Primary chondrocyte [26] = experiment: Anti-inflammatory activity in IL-1beta-treated C57/BL6 mouse primary chondrocytes assessed as decrease in MMP-13 mRNA level at 10 uM incubated for 24 hrs by RT-qPCR analysis; assay type: functional, cell-based
Rattus norvegicus [27] = species on record: Rattus norvegicus; experiment: Anti-inflammatory activity in male Sprague-Dawley rat model of ACLT-induced osteoarthritis assessed as increase in BV/TV level at 50 to 100 ug, IART treated weekly once for 8 weeks by micro-CT analysis; assay type: functional, organism-based; details: dose 50-100 µg
Rattus norvegicus [28] = species on record: Rattus norvegicus; experiment: Anti-inflammatory activity in male Sprague-Dawley rat model of ACLT-induced osteoarthritis assessed as reduction in articular cartilage erosion at 50 to 100 ug, IART treated weekly once for 8 weeks by H and E/S-O/FG staining based analysis; assay type: functional, organism-based; details: dose 50-100 µg
Rattus norvegicus [29] = species on record: Rattus norvegicus; experiment: Anti-inflammatory activity in male Sprague-Dawley rat model of ACLT-induced osteoarthritis assessed as reduction in OARSI score at 50 to 100 ug, IART treated weekly once for 8 weeks; assay type: functional, organism-based; details: dose 50-100 µg
[30] = Oral bioavailability in male Sprague-Dawley rat at 1 mg/kg, iv measured for 0.25 to 24 hrs; assay type: ADME, organism-based; details: in vivo, time 0.25-24 hrs
[31] = Half life in male Sprague-Dawley rat at 10 mg/kg, po measured for 0.25 to 24 hrs; assay type: ADME, organism-based; details: in vivo, time 0.25-24 hrs
RAW264.7 [32] = experiment: Anti-inflammatory activity in LPS-stimulated mouse RAW264.7 cells assessed as decrease in IL-6 level at 10 uM preincubated for 24 hrs followed by LPS addition measured after 2 hrs by RT-qPCR analysis; assay type: functional, cell-based; details: time 26.0 hrs
Bone marrow macrophage [33] = experiment: Inhibition of RANKL/M-CSF-induced osteoclastogenesis in bone marrow macrophage cells (unknown origin) assessed as decrease in MMP-9 level incubated for 48 hrs by Western blot analysis; assay type: functional, cell-based; details: dose <= 2.5 µM
Rattus norvegicus [34] = species on record: Rattus norvegicus; experiment: Anti-inflammatory activity in male Sprague-Dawley rat model of ACLT-induced osteoarthritis assessed as reduction in OA-induced pain at 50 to 100 ug, IART treated weekly once for 8 weeks by hot-plate test; assay type: functional, organism-based; details: dose 50-100 µg

Tumor necrosis factor, sequence (P01375 whole entry): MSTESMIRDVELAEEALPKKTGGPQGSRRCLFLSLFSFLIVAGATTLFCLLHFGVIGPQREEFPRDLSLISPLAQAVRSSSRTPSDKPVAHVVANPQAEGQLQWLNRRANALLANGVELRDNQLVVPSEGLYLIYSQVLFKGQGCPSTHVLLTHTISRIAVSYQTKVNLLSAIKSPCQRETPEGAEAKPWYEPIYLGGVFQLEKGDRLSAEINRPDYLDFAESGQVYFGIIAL

In the case of Cc1cccc(C)c1NC(=O)[C@@H]1Cc2c([nH]c3ccccc23)C2(CN(c3ccccc3)C2)N1, the Activity (Rattus norvegicus [1]) is reported as “Active”, the inhibition (Bone marrow macrophage [2]) is reported as “Time-dependent-effect” and the clearance [3] is reported as 71.7 mL/min/kg. The inhibition (Bone marrow cell [4]) was “Dose-dependent-effect”, the inhibition (Bone marrow macrophage [5]) was “Dose-dependent-effect” and the AUC(0-t) [6] was 227 ng·h/mL. The inhibition (Bone marrow macrophage [7]) was “Dose-dependent-effect”, the inhibition (RAW264.7 [8]) was “Active” and the Vd [9] was 4.91 L/kg. The inhibition (Bone marrow macrophage [10]) was “Time-dependent-effect”, the Activity (Primary chondrocyte [11]) was “Active” and the inhibition (Bone marrow cell [12]) was “Time-dependent-effect”. The Activity (Primary chondrocyte [13]) was “Active”, the IC50 [14] was 0.109 µM and the inhibition (Bone marrow cell [15]) was “Dose-dependent-effect”. The inhibition (Bone marrow macrophage [16]) was “Dose-dependent-effect”, the inhibition (Bone marrow macrophage [17]) was “Time-dependent-effect” and the inhibition at 0.1 µM [18] was 59.7%. The Kd (Tumor necrosis factor) was 18.6 µM, the half-life [19] was 1.27 h and the Activity (Rattus norvegicus [20]) was “Active”. The Activity (Primary chondrocyte [21]) was “Active”, the Cmax [22] was 780 ng/mL and the Tmax [23] was 0.5 h. For the same compound, the inhibition (Bone marrow macrophage [24]) was “Dose-dependent-effect”, the Activity (RAW264.7 [25]) was “Active” and the Activity (Primary chondrocyte [26]) was “Active”. The Activity (Rattus norvegicus [27]) was “Active”, the Activity (Rattus norvegicus [28]) was “Active” and the Activity (Rattus norvegicus [29]) was “Active”. The bioavailability [30] was 71.4%, the half-life [31] was 5.07 h and the Activity (RAW264.7 [32]) was “Active”. For the same compound, the inhibition (Bone marrow macrophage [33]) was “Dose-dependent-effect” and the Activity (Rattus norvegicus [34]) was “Active”.
